Like-named read-outs stand apart in the source and are kept apart here.
Key:
hELOVL6 = target: T1, hELOVL6 (Homo sapiens, UniProt Q9H5J4); conditions: in vitro, cited from earlier work
T1 sequence (Q9H5J4 1-265): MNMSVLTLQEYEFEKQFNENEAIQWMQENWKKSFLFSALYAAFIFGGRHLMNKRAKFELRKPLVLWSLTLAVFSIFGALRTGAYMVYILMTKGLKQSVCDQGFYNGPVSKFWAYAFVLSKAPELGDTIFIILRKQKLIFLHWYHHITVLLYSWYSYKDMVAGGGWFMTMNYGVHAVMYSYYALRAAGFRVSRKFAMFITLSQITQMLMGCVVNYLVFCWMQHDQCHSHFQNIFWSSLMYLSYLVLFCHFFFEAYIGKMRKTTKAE

ACAT = conditions: cited from earlier work
Liquid Droplet = conditions: read-out: Liquid Droplet inhibition IC50; cited from earlier work
HCMV AD169 strain = assay: microbe, parasite or virus in culture; assay type: cell-based, human cytomegalovirus; conditions: for decrease in HCMV virus titer: 96 h after infection; for reduction of HCMV viral yield: 96 h post infection; for effect on HCMV replication / yield, in words: concentrations as in the sentence or figure
[1] = tested on: lipid droplets in HCMV infected cells; assay: lipid droplets by oil red O staining; assay type: cell-based, human
From the text: A pair of related enzymes that are both required for HCMV replication are ADP-ribosyltransferase 1 and 3 (ART1 and ART3). Inhibition of either of these enzymes led to a marked reduction in HCMV replication, ˜40-fold for ART1 and ˜10-fold for ART3. Without being bound by any particular mechanism, although ADP-ribosyltransfer is not per se a reaction of lipid metabolism, ADP ribosylation plays a key role in regulating lipid storage via targets including the protein CtBP1/BARS. Mono-ADP ribosylation of this protein results in loss of lipid droplets due to a dramatic efflux of fatty acids.
Thus host cell components involved in lipid droplet production and consumption provide antiviral targets. In addition to siRNA against the relevant cellular machinery, other means of inhibiting lipid droplet formation include the compounds spylidone, PF-1052 (a fungal natural product isolated from Phoma species), vermisporin, beauveriolides, phenochalasins, isobisvertinol, K97-0239, and rubimaillin.
Lipid droplet formation and depletion is associated with HCMV infection. At early phase of infection (2-12 hours after infection) lipid droplets are induced within the infected cells and thereafter, a complete loss of lipid droplets is observed (48-72 hours after infection).

hELOVL3 = hELOVL3 (Homo sapiens, UniProt Q9HB03); conditions: in vitro; cited from earlier work
late viral protein pUL99 = assay: HCMV late viral protein expression (pUL99-GFP); assay type: cell-based, human cytomegalovirus
MRCS human fibroblasts [2] = assay: host cell viability, morphology and toxicity in fibroblasts; conditions: for toxicity on the cells: at the antiviral doses tested; for appearance of cells: 96 h
Method: (§1) Top panels: About 90% confluent MRCS human fibroblasts were treated with the indicated concentrations of triacsin C or the carrier in which the drug was dissolved (DMSO) in the presence of 10% fetal calf serum and photographed 96 h later. Bottom left panel: About 90% confluent MRCS fibroblasts were either mock infected or infected with the AD169 strain of HCMV at a multiplicity of (0.1 pfu/cell). The uninfected or infected cells received DMSO (solvent for the drug) or the drug for 96 h before cells were assayed for viability. Bottom right panel: About 90% confluent MRCS fibroblasts were infected with HCMV at a multiplicity of (0.1 pfu/cell) in the presence of DMSO (0 nM triacsin C) or triacsin C at the indicated concentrations. Infected fibroblasts were maintained in medium containing 10% fetal calf serum. Virus yield in the medium at 96 h after infection was determined by infecting fibrobalsts and assaying IE1 expression by immunofluorescence 24 h later. 96 h after infection, cells were harvested into culture medium and sonicated to release cell-associated virus. Virus yield in the medium was determined by infecting fibroblasts and assaying IE1 expression by immunofluorescence 24 h later.
(§2) The effect of triacsin C on the viability of MRCS human fibroblasts in culture medium containing 10% fetal calf serum was tested. At the time drug was added, cells were about 90% confluent.

[3] = mice, oral, 10 mg/kg, 2 hours after treatment; cited from earlier work
Liver ACAT = conditions: cited from earlier work
HCMV = assay: siRNA screen, infectious yield of HCMV; conditions: enzyme knockdown by siRNA; fibroblasts, HCMV 0.1 pfu/cell, 96 h
Method: To identify host cell enzymes whose inhibition could decrease the production of virus progeny, an siRNA screen was performed to test for roles of specific enzymes involved directly or indirectly in lipid metabolism. The siRNA screen was designed to test for effects of inhibiting specific siRNA targets on the infectious yield of HCMV. The screen was performed in 96-well plates using a portion of an siRNA library purchased from Sigma. Each target was assayed with three different siRNAs.
Also at 96 h after infection, the medium was removed from each well and used to infect fibroblasts in a new 96-well plate, and infectivity was quantified by staining for immunofluorescence and counting IE1-positive cells 24 h later.

adenovirus type 5 = assay: adenovirus replication in fibroblasts; assay type: cell-based; conditions: for decrease in adenovirus replication / titer: MOI 1, 72 h; for effect on adenovirus replication, in words: indicated amounts of drug
HSV-1 = HSV-1 replication in fibroblasts; assay type: cell-based, herpes simplex virus type 1; conditions: for effect on HSV-1 growth, in words: indicated amounts of drug
[4] = tested on: HCV JFH1 strain derivative; assay: release of infectious HCV from Huh7.5 cells, TCID50 assay
Method: Huh7.5 cells were infected with a derivative of HCV JFH1 strain (MOI=0.1 TCID50/cell). Infected cells were maintained in medium containing 10% fetal calf serum plus DMSO (0 nM triacsin C) or triacsin C at the indicated concentrations. Media were harvested at 72 h and infectious virus was quantified by standard TCID50 assay on Huh7.5 cells.
Virus yield in the medium at 72 h after infection was determined.
Huh7.5 cells were infected a derivative of HCV JFH1 strain (MOI=0.1 TCID50/cell) Infected cells were maintained in medium containing 10% fetal calf serum plus DMSO (0 μg/ml TOFA) or TOFA at the indicated doses. Media were harvested at 72 h and infectious virus was quantified by standard TCID50 assay on Huh7.5 cells.
Huh7.5 cells which was infected with HCV and treated with indicated amounts of TOFA (FIG. 21).

[5] = tested on: influenza A strain WSN/33; assay: influenza A replication in fibroblasts; assay type: cell-based; conditions: for effect on influenza A growth, in words: indicated amounts of drug
MRCS human fibroblasts [6] = tested on: MRCS human fibroblasts
Method: as §1, §2

ACSLs = conditions: rat liver cell sonicates; cited from earlier work
[7] = tested on: triacylglycerol (TG) synthesis; conditions: cited from earlier work
atherosclerosis = conditions: oral, 10 mg/kg/day, two months, cited from earlier work
[8] = tested on: cholesterol ester (CE) synthesis; conditions: cited from earlier work
ELOVL3 = conditions: 'in vivo' as printed; cited from earlier work
ELOVL6 = conditions: 'in vivo' as printed; cited from earlier work

hELOVL3, sequence (Q9HB03 whole entry): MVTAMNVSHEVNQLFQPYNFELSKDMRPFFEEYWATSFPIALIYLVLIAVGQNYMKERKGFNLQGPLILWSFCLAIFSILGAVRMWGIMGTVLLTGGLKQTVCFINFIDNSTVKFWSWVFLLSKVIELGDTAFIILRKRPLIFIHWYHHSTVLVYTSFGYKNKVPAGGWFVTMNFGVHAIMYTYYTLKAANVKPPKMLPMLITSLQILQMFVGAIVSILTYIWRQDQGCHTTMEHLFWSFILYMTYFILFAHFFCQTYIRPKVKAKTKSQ
Method for MDCK cells: Bottom panel: Approximately 90% confluent MDCK cells were infected with WSN/33 at a multiplicity of (0.001 pfu/cell) in the presence of PBS (0 mM) or AOAA at the indicated concentrations. Virus yield in the medium at indicated times after infection was determined by standard plaque assay on MDCK cells.
Replication of influenza A (WSN/33 strain) was measured in MDCK cells at a multiplicity of infection of 0.001 particle forming unit per cell.

O=C(Nc1ccc(C(F)(F)F)cc1)N1C2CCC1CC(S(=O)(=O)c1ccccn1)C2 (stereo not drawn) [endo-1w]
IC50 (hELOVL6; read-out: hELOVL6 IC50): ~78 nM
IC50 (hELOVL6; read-out: human ELOVL6 IC50): ~6900 nM

CC(C)c1cc(C(C)C)c(CC(=O)NS(=O)(=O)Oc2c(C(C)C)cccc2C(C)C)c(C(C)C)c1 [Avasimibe]
IC50 (ACAT): 479 nM

CC(C)=CCc1c([C@H](O)C2OC2(C)C)ccc2[nH]c3c(c12)C[C@@H]1CC[C@@]2(O)C(C)(C)C(=O)CC[C@]2(C)[C@@]31C (some centres unmarked) [Sespendole]
IC50 (Liquid Droplet): 4000 nM

CCC(C)[C@@H]1C(=O)C2(C[C@@H]3[C@@H]4[C@H](C)C[C@H](C)C[C@@H]4C=C[C@@H]3[C@](C)(O)[C@H]2C)C(=O)N1C (some centres unmarked) [Spylidone]
IC50 (Liquid Droplet): 42000 nM

CC(C)=C[C@H]1O[C@H]2[C@H]3O[C@@]34[C@H](CC[C@@]3(C)[C@@]4(O)CC[C@H]4Cc5c([nH]c6ccccc56)[C@@]43C)O[C@@H]2C(C)(C)O1 [Terpendole C]
IC50 (Liquid Droplet): 2500 nM

CCCCn1c(=O)c(NC(=O)Nc2c(C(C)C)cc(N)cc2C(C)C)c(-c2cccc(OCCCO)c2)c2cccnc21 [SMP-797]
IC50 (ACAT): 31 nM

N=C(N)NCc1cccc([131I])c1 [MIBG, meta-iodo-benzylguanidine]
inhibition of HCMV replication (HCMV AD169 strain; 100 μM, fibroblasts): 13 fold
HCMV-induced accumulation and depletion of lipid droplets ([1]; 100 μM): blocked

CC(=O)Nc1nnc(S(N)(=O)=O)s1 [acetazolamide]
inhibition at 25 µM (HCMV AD169 strain; Human betaherpesvirus 5, AD169, Fibroblast, read-out: inhibition of HCMV replication): ~80%

Cc1[nH]n(-c2ccc(OC(F)(F)F)cc2)c(=O)c1C1(C(F)(F)F)C(=O)N(c2ccccc2)C2=C1C(=O)CC(C)(C)C2 (centres unmarked) [Compound 37]
IC50 (hELOVL3): ~337 nM
inhibition of HCMV replication (HCMV AD169 strain; 35 μM): > 10 fold
HCMV virus yield (HCMV AD169 strain; 70 μM): undetectable levels
HCMV late pUL99 expression, in words (late viral protein pUL99): substantially reduced
toxicity on the cells (MRCS human fibroblasts [2]): Without inducing any toxicity
liver level [3]: 50 µM
plasma level [3]: 30 µM

COC(=O)c1c2c(c3ccccc3c1O)OC(C)(C)C=C2 [rubimaillin]
decrease in HCMV virus titer (HCMV AD169 strain; 5 μM): approximately 85%
reduction of HCMV replication (HCMV AD169 strain; 10 μM): > 80%

CCCCCCCCN1CCc2c(C)c(CC(=O)O)c(C)c(NC(=O)C(C)(C)C)c21 [Pactimibe]
IC50 (Liver ACAT): 312 nM

CCCCCCCN(Cc1ccc(CCC(C)C)cc1)C(=O)Nc1c(F)cc(F)cc1F [CL-283,546]
IC50 (Liquid Droplet): 35 nM

CC(c1cc2ccccc2s1)N(O)C(N)=O (centres unmarked) [zileuton]
reduction of HCMV replication (HCMV AD169 strain; 100 μM): ~90%

STX8 (sense GACUACUUCUGGCAUCCUUTT; antisense AAGGAUGCCAGAAGUAGUCTT; chemistry not given here)
Fold reduction of HCMV replication (HCMV): 1.96 fold

NOCC(=O)O [AOAA, aminooxyacetic acid]
decrease in HCMV replication (HCMV AD169 strain; 0.5 mM): 100 fold
host cell toxicity by light microscopy (MDCK cells): no evidence of host cell toxicity
decrease in adenovirus replication / titer (adenovirus type 5; 0.5 mM): 20 fold
decrease in adenovirus replication / titer (adenovirus type 5; 1 mM): 500 fold

COc1cccc(C2(CNC(=O)Nc3c(C(C)C)cc(N)cc3C(C)C)CCN(c3ccccc3C)CC2)c1 [Compound 12g]
IC50 (ACAT): 68 nM

CCC(C)[C@@H]1C(=O)/C(=C(/O)[C@@H]2[C@@H]3[C@H](C)C[C@H](C)C[C@@H]3C=C[C@@H]2[C@]2(C)O[C@H]2C)C(=O)N1C (some centres unmarked) [PF-1052]
reduction of HCMV viral yield (HCMV AD169 strain; 5 μM): > 50 fold
reduction of HCMV yield, prolonged treatment (HCMV AD169 strain; 5 μM, medium replaced daily, 10 days after infection): > 5000 fold
reduction of HCMV viral yield (HCMV AD169 strain; 10 μM): > 300 fold
effect on HCMV replication / yield, in words (HCMV AD169 strain): profoundly inhibits
effect on HSV-1 growth, in words (HSV-1): substantially inhibited
HCMV late pUL99 expression, in words (late viral protein pUL99): markedly reduced
inhibition at 10 µM (late viral protein pUL99; Human betaherpesvirus 5, 10 μM, read-out: inhibition of HCMV late protein synthesis): > 99%
inhibition of release of infectious HCV particles ([4]; 5 μM): 10 fold
inhibition of release of infectious HCV particles ([4]; 10 μM): > 100 fold
host cell toxicity by light microscopy (MRCS human fibroblasts [2]; 5 and 10 μM): no evidence of host cell toxicity
effect on adenovirus replication, in words (adenovirus type 5): not and not inhibited
effect on influenza A growth, in words [5]: substantially inhibited

CCC(C)(C)C(=O)O[C@H]1C[C@@H](C)C=C2C=C[C@H](C)[C@H](CC[C@@H]3C[C@@H](O)CC(=O)O3)[C@H]21 [simvastatin]
decrease in HCMV virus titer (HCMV AD169 strain; 5 μM): approximately 90%

STX6 (sense CAAGUUGUCAGGGACAUGATT; antisense UCAUGUCCCUGACAACUUGTT; chemistry not given here)
Fold reduction of HCMV replication (HCMV): 1.92 fold

O=C(Nc1ccc(C(F)(F)F)cc1)N1C2CCC1CC(S(=O)(=O)c1ccccc1)C2 (stereo not drawn) [endo-1k]
inhibition of HCMV replication (HCMV AD169 strain; 50 μM): ~400 fold
HCMV late pUL99 expression, in words (late viral protein pUL99): dramatically reduced
IC50 (hELOVL6; read-out: hELOVL6 IC50): ~78 nM
toxicity on the cells (MRCS human fibroblasts [6]): Without inducing any toxicity

Cc1cc(NC(=O)[C@@H]2Cc3ccc(N(C)C)cc3CN2C(=O)C(C)C)c(C)c(C)c1O [Compound 21]
IC50 (Liver ACAT): 113 nM

CCC/C=C/C/C=C/C=C/C=N/NN=O [triacsin C]
IC50 (ACSLs): ~8700 nM
reduction of yield of infectious HCMV (HCMV AD169 strain; 50 nM, presence of serum): > 8 fold
reduction of yield of infectious HCMV, factor (HCMV AD169 strain; 250 nM, added with virus, 96 h, 10% serum): 85
effect on HCMV replication / yield, in words (HCMV AD169 strain): substantially inhibited
inhibition of HCMV replication (HCMV AD169 strain; nanomolar concentrations): > 10 fold
effect on HSV-1 growth, in words (HSV-1): substantially inhibited
inhibition of HSV-1 replication (HSV-1; nanomolar concentrations): > 10 fold
release of infectious HCV particles, in words ([4]; indicated amounts of drug, 72 h): significantly reduced
depletion of lipid droplets ([1]; 100 nM): > 90%
lipid droplets by oil red O staining ([1]; 250 nM): no detectable lipid droplets
lipid droplet formation induced by HCMV infection ([1]; HFF cells): reduced lipid droplet formation
viability of MRC-5 fibroblasts (MRCS human fibroblasts [2]; 50 nM, presence of serum): without discrenably impacting
appearance of cells (MRCS human fibroblasts [2]; 100 or 250 nM, 10% fetal calf serum): did not alter the appearance of cells
cell viability (MRCS human fibroblasts [2]; absence of fetal calf serum, doses up to 10 μM): no discernable impact
cell viability (MRCS human fibroblasts [2]; doses of ≦500 nM, 10% fetal calf serum): little effect
appearance of cells (MRCS human fibroblasts [2]; ≦500 nM, 10% fetal calf serum): some cell rounding
effect on adenovirus replication, in words (adenovirus type 5): not
effect on influenza A growth, in words [5]: substantially inhibited
inhibition of influenza A replication ([5]; nanomolar concentrations): > 10 fold
IC50 [7]: 100 nM
progression of atherosclerosis (atherosclerosis; LDLR-/- mice): significantly inhibited
toxicities (atherosclerosis; mice): no significant toxicities noted
IC50 [8]: 190 nM

O=C1Nc2ccc(-c3ccn[nH]3)cc2[C@](CNC(=O)c2ccc(F)cc2)(C(F)(F)F)O1 [(S)-1y]
IC50 (hELOVL3): ~130 nM
inhibition of HCMV replication (HCMV AD169 strain; 25 μM): ~40 fold
inhibition of HCMV replication (HCMV AD169 strain; 50 μM): > 1000 fold
HCMV late pUL99 expression, in words (late viral protein pUL99): dramatically reduced
toxicity on the cells (MRCS human fibroblasts [2]): Without inducing any toxicity
IC50 (ELOVL3): > 5000 nM
IC50 (ELOVL6): 169 nM
